Assay [1] is described as follows: RUN B: ethylene-octene polymerization in parallel pressure reactor, activator diluent toluene or methylcyclohexane. The conditions noted are these: ethylene-octene copolymerization. The protocol: RUN B: Polymerization in Parallel Pressure Reactor.
A series of ethylene-octene polymerizations were performed in the parallel pressure reactor according to the procedure described above. […] In a typical experiment an automated syringe was used to introduce into the reactor the following reagents, if utilized, in the following order: isohexane (0.35 mL), an isohexane solution of TNOAL scavenger (0.005 M, 60 μL), additional isohexane (0.35 mL), a toluene solution of the respective polymerization catalyst (150 μL, 0.4 mM, 20 nm [cat]/100 μL [toluene]), additional isohexane (0.35 mL), a toluene or methylcyclohexane solution of the respective activator (150 μL, 0.4 mM, (20 nm [act]/100 μL[ diluent])), then additional isohexane so that the total solvent volume for each run was 5 mL. Catalyst and activator were used in a 1:1 ratio. Each reaction was performed at a specified temperature range between 50 and 120° C., typically 95° C., while applying about 100 psig of ethylene (monomer) gas. Each reaction was allowed to run for about 1 hour (˜3600 seconds) or until approximately 20 psig of ethylene gas uptake was observed, at which point the reactions were quenched with air (˜300 psig). When sufficient polymer yield was attained (e.g., at least ˜10 mg), the polyethylene product was analyzed by Rapid GPC, described below.
In a typical experiment, the anilinium borate activators were combined with toluene or methylcyclohexane as diluent and introduced to the parallel, pressure reactor via syringe. By this mechanism of activator introduction, only well dissolved activators could be delivered to the reactor providing a means to discriminate between the polymerization performance of long chain soluble anilinium borates vs. conventional anilinium borates. Following addition of activator, the catalyst Cat 1 was introduced, via syringe as well-dissolved toluene solution and the polymerization was conducted per the methodology described above.

A short description of assay [2]: Ethylene homopolymerization (PE) in parallel pressure reactor, MCN-1. The settings on record: MCN-1 = 20 nmol, activator = 22 nmol, 80° C., 75 PSI. Here is the method:
Ethylene homopolymerization (PE).
A series of ethylene polymerizations were performed in the parallel pressure reactor sinilar to the procedure described above. In these studies rac-dimethylsilyl- bis(indenyl)hafnium dimethyl (MCN-1) was used along with ammonium borate activators .

Assay [3] in a line: Ethylene-octene copolymerization in parallel pressure reactor, non-metallocene catalyst CAT-4. The settings on record: catalyst CAT-4 20 nmol; activator 1.1 equiv; 100° C.; 135 psi; 1-octene 100 uL; TNOAL 0.5 umol. Here is the method:
(§1) Solutions of the metal complexes and activators were prepared in a drybox using toluene or methylcyclohexane. Concentrations were typically 0.2 mmol/L. Tri-n-octylaluminum (TNOAL, neat, AkzoNobel) was typically used as a scavenger. Concentration of the TNOAL solution in toluene ranged from 0.5 to 2.0 mmol/L.
(§2) Polymerizations were carried out in a parallel pressure reactor, as generally described in U.S. Pat. Nos. 6,306,658; 6,455,316; 6,489,168; WO 00/09255; and Murphy, V. et al. (2003) “A Fully Integrated High-Throughput Screening Methodology for the Discovery of New Polyolefin Catalysts: Discovery of a New Class of High Temperature Single-Site Group (IV) Copolymerization Catalysts,” J. Am. Chem. Soc., v. 125, pp. 4306-4317, each of which is fully incorporated herein by reference. […] Although the specific quantities, temperatures, solvents, reactants, reactant ratios, pressures, and other variables are frequently changed from one polymerization run to the next, the following describes a typical polymerization performed in a parallel pressure reactor.
(§3) Ethylene-Octene Copolymerization (EO).
(§4) A pre-weighed glass vial insert and disposable stirring paddle were fitted to each reaction vessel of the reactor, which contains 48 individual reaction vessels. The reactor was then closed and purged with ethylene. Each vessel was charged with enough solvent (typically isohexane) to bring the total reaction volume, including the subsequent additions, to the desired volume, typically 5 mL. 1-octene, if required, was injected into the reaction vessel and the reactor was heated to the set temperature and pressurized to the predetermined pressure of ethylene, while stirring at 800 rpm. The aluminum compound (such as tri-n-octylaluminum) in toluene was then injected as scavenger followed by addition of the activator solution (typically 1.0-1.2 molar equivalents).
(§5) The catalyst (and activator solutions for Run A) were all prepared in toluene. The catalyst solution (typically 0.020-0.080 μmol of metal complex) was injected into the reaction vessel and the polymerization was allowed to proceed until a pre-determined amount of ethylene (quench value typically 20 psi) had been used up by the reaction. Alternatively, the reaction may be allowed to proceed for a set amount of time (maximum reaction time typically 30 minutes). Ethylene was added continuously (through the use of computer controlled solenoid valves) to the autoclaves during polymerization to maintain reactor gauge pressure (P setpt, +/−2 psig) and the reactor temperature (T) was monitored and typically maintained within +/−1° C. The reaction was quenched by pressurizing the vessel with compressed air. After the reactor was vented and cooled, the glass vial insert containing the polymer product and solvent was removed from the pressure cell and the inert atmosphere glove box, and the volatile components were removed using a Genevac HT-12 centrifuge and Genevac VC3000D vacuum evaporator operating at elevated temperature and reduced pressure. The vial was then weighed to determine the yield of the polymer product. The resultant polymer was analyzed by Rapid GPC (see below) to determine the molecular weight, by FT-IR (see below) to determine percent octene incorporation, and by DSC (see below) to determine melting point (Tm).
(§6) Equivalence is determined based on the mole equivalents relative to the moles of the transition metal in the catalyst complex.
(§7) Activators of the present disclosure can also be used for activating non-metallocene catalysts for polymerization of olefins. Table 4 illustrates copolymerization of ethylene and octene using activators of the present disclosure and non-metallocene catalysts (CAT-1, CAT-2, CAT-3, and CAT-4).

Assay [4] in a line: Ethylene-octene copolymerization in parallel pressure reactor, non-metallocene catalyst CAT-1. The settings on record: catalyst CAT-1 20 nmol; activator 1.1 equiv; 100° C.; 135 psi; 1-octene 100 uL; TNOAL 0.5 umol. The protocol: as §1, §2, §3, §4, §5, §6, §7
A short description of assay [5]: Ethylene-octene copolymerization in parallel pressure reactor, non-metallocene catalyst CAT-2. The conditions noted are these: catalyst CAT-2 20 nmol; activator 1.1 equiv; 100° C.; 135 psi; 1-octene 100 uL; TNOAL 0.5 umol. Here is the method: as §1, §2, §3, §4, §5, §6, §7
The nature of assay [6]: Ethylene-octene copolymerization (EO) in parallel pressure reactor, MCN-1 (Table 6). The settings on record: MCN-1 = 20 nmol, activator = 22 nmol, 1-octene 100 μL, 80° C., 75 PSI. Here is the method: as §3, §4, §5
A series of ethylene-octene polymerizations were performed in the parallel pressure reactor according to a similar procedure as described above. In these studies rac-dimethylsilyl-bis(indenyl)hafnium dimethyl (MCN-1) was used along with ammonium borate activators.

A short description of assay [7]: Ethylene-octene copolymerization in parallel pressure reactor, non-metallocene catalyst CAT-3. The conditions noted are these: catalyst CAT-3 20 nmol; activator 1.1 equiv; 100° C.; 135 psi; 1-octene 100 uL; TNOAL 0.5 umol. The protocol: as §1, §2, §3, §4, §5, §6, §7
A short description of assay [8]: Propylene homopolymerization in parallel pressure reactor, MCN-1 with ammonium borate activators.
Excerpt: Polymerization in Parallel Pressure Reactor
Solvents, polymerization-grade toluene, and isohexane were supplied by ExxonMobil Chemical Company and purified by passing through a series of columns: two 500 cc Oxyclear cylinders in series from Labclear (Oakland, Calif.), followed by two 500 cc columns in series packed with dried 3 Å mole sieves (8-12 mesh; Aldrich Chemical Company), and two 500 cc columns in series packed with dried 5 Å mole sieves (8-12 mesh; Aldrich Chemical Company). 1-octene (C8) and 1-hexene (C6) (98%, Aldrich Chemical Company) were dried by stirring over NaK overnight followed by filtration through basic alumina (Aldrich Chemical Company, Brockman Basic 1).
as §1, §2
Catalyst systems dissolved in solution were used in the polymerization examples below, unless specified otherwise.
RUN A: Propylene Homopolymerization (PP).
The reactor was prepared as described above and purged with propylene. For the examples in Table 2, the catalyst and activator solutions were prepared in toluene. […] Isohexane was then injected into each vessel at room temperature followed by a predetermined amount of propylene gas. The reactor was heated to the set temperature while stirring at 800 rpm, and the scavenger, activator and catalyst solutions were injected sequentially to each vessel. The polymerization was allowed to proceed as described previously.
A series of propylene polymerizations were performed in parallel pressure reactors (PPRs) developed by Symyx Technologies, Inc. In these polymerizations, the metallocene rac-dimethylsilyl-bis(indenyl)hafnium dimethyl (MCN-1) was used along with several different ammonium borate activators. Polymerizations were performed at 85° C. and 100° C.
Propylene homopolymerization (PP).
A series of propylene polymerizations were performed in the parallel pressure reactor similar to the procedure described above. In these studies rac-dimethylsilyl-bis(indenyl)hafnium dimethyl (MCN-1) was used along with ammonium borate activators.

Values joined by “and” are separate entries in the source; they are usually repeats but may differ in a detail not shown here. Equal values may be shown once.

Consider “N,N-Dimethylanilinium tetrakis(pentafluorophenyl)borate [DMAH-BF20, reference compound]”, for which the “quantity of polymer obtained with methylcyclohexane as diluent” value in assay [1] (Cat 1, activator in methylcyclohexane) is “insufficient for analysis”. The “activity” value was 764.2 kg/mmol/h and 675.0 kg/mmol/h and 659.1 kg/mmol/h and 680.5 kg/mmol/h in assay [1] (Cat 1 (MCN-1), activator diluent Toluene, listed as C1); 288.7 kg/mmol/h and 407.1 kg/mmol/h in assay [2]; 76 kg/mmol/h and 45 kg/mmol/h in assay [3]; 2977 kg/mmol/h and 2469 kg/mmol/h in assay [4]; 1140 kg/mmol/h and 916 kg/mmol/h in assay [5]; 644.4 kg/mmol/h and 509.4 kg/mmol/h in assay [6]. The “activity” value in assay [7] was 819 kg/mmol/h and 698 kg/mmol/h.

For “N-methyl-4-nonadecyl-N-octadecylanilinium tetrakis(perfluoronaphthalen-2-yl)borate [NOMAH-BF28]”, the “activity” value was 213.1 kg/mmol/h and 202.3 kg/mmol/h and 173.6 kg/mmol/h and 272.1 kg/mmol/h in assay [2]; 141 kg/mmol/h and 208 kg/mmol/h and 193 kg/mmol/h and 210 kg/mmol/h and 181 kg/mmol/h and 178 kg/mmol/h and 223 kg/mmol/h and 207 kg/mmol/h in assay [8] (propylene 150 psi, 100° C., MCN-1 = 30 nmol, activator = 33 nmol, isohexane, TNOAL 500 nmol); 302.1 kg/mmol/h and 321.1 kg/mmol/h and 300.0 kg/mmol/h and 345.5 kg/mmol/h in assay [6]. Besides, in assay [8] (MCN-1, polypropylene at 100° C., Table 7 runs), the “average catalyst activity, comparison of the four activators (FIG. 6)” value is reported as “highest average activities”.

As to `CCCCCCCCCCCCCCCCCC[NH+](C)c1ccc(CCCCCCCCCCC)cc1.Fc1c(F)c(F)c([B-](c2c(F)c(F)c(F)c(F)c2F)(c2c(F)c(F)c(F)c(F)c2F)c2c(F)c(F)c(F)c(F)c2F)c(F)c1F` [UOMAH-BF20], the “activity” value in assay [2] was 332.5 kg/mmol/h and 317.6 kg/mmol/h and 310.3 kg/mmol/h and 400.0 kg/mmol/h; in assay [6], 502.3 kg/mmol/h and 455.9 kg/mmol/h and 521.4 kg/mmol/h and 421.0 kg/mmol/h.

For the origin of these results see patent publication US11414436B2, “Non-coordinating anion type activators containing cation having large alkyl groups” (ExxonMobil Chemical Patents Inc., priority 2018, dated 2022).
